Data published in US7902373B2 (Pfizer Inc, priority 2006, dated 2011).

biological target: human recombinant H-PGDS (Homo sapiens, UniProt O60760); experiment: Fluorescence intensity h-PGDS TBA enzyme assay; type: biochemical; conditions: Examples up to 622 (and 3a, 3b)
Sequence (O60760 whole entry): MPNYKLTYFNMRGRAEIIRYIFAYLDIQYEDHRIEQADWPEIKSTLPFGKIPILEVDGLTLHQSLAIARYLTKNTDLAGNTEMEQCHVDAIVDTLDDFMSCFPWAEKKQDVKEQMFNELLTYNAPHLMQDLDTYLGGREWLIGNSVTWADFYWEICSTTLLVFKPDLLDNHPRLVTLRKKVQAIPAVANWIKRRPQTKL

Compound | IC50 [nM]
O=C(NC1CCN(Cc2cn3ccccc3n2)CC1)c1ccc(-c2cccc(F)c2)nc1 [Example 406, 6-(3-Fluorophenyl)-N-[1-(imidazo[1,2-a]pyridin-2-ylmethyl)piperidin-4-yl]nicotinamide] | 2.36
O=C(NC1CCN(Cc2nc(-c3ccc(F)cc3)cs2)CC1)c1ccc(-c2cccc(F)c2)nc1 [Example 407, 6-(3-Fluorophenyl)-N-(1-{[4-(4-fluorophenyl)-1,3-thiazol-2-yl]methyl}piperidin-4-yl)nicotinamide] | 5.4
O=C(NC1CCN(Cc2nc(-c3cccc(F)c3)cs2)CC1)c1ccc(-c2cccc(F)c2)nc1 [Example 408, 6-(3-Fluorophenyl)-N-(1-{[4-(3-fluorophenyl)-1,3-thiazol-2-yl]methyl}piperidin-4-yl)nicotinamide] | 61.9
COc1cccc(-c2csc(CN3CCC(NC(=O)c4ccc(-c5cccc(F)c5)nc4)CC3)n2)c1 [Example 409, 6-(3-Fluorophenyl)-N-(1-{[4-(3-methoxyphenyl)-1,3-thiazol-2-yl]methyl}piperidin-4-yl)nicotinamide] | 2.25
N#Cc1cccc(-c2csc(CN3CCC(NC(=O)c4ccc(-c5cccc(F)c5)nc4)CC3)n2)c1 [Example 410, N-(1-{[4-(3-Cyanophenyl)-1,3-thiazol-2-yl]methyl}piperidin-4-yl)-6-(3-fluorophenyl)nicotinamide] | 16.3
CCc1csc(CN2CCC(NC(=O)c3ccc(-c4cccc(F)c4)nc3)CC2)n1 [Example 411, N-{1-[(4-Ethyl-1,3-thiazol-2-yl)methyl]piperidin-4-yl}-6-(3-fluorophenyl)nicotinamide] | 1.36
Cc1sc(CN2CCC(NC(=O)c3ccc(-c4cccc(F)c4)nc3)CC2)nc1-c1ccccc1 [Example 412, 6-(3-Fluorophenyl)-N-{1-[(5-methyl-4-phenyl-13-thiazol-2-yl)methyl]piperidin-4-yl}nicotinamide] | 4.12
Cn1c(CN2CCC(NC(=O)c3ccc(-c4cccc(F)c4)nc3)CC2)nc2cccnc21 [Example 415, 6-(3-Fluorophenyl)-N-{1-[(3-methyl-3H-imidazo[4,5-b]pyridin-2-yl)methyl]piperidin-4-yl}nicotinamide] | 1.96
CC(C)(C)OC(=O)NC1CCC(CN2CCC(NC(=O)c3ccc(-c4cccc(F)c4)nc3)CC2)CC1 (centres unmarked) [Example 416, tert-Butyl (4-{[4-({[6-(3-fluorophenyl)pyridin-3-yl]carbonyl}amino)piperidin-1-yl]methyl}cyclohexyl)carbamate] | 1.68
CN(C)CCCOc1cccc(CN2CCC(NC(=O)c3ccc(-c4cccc(F)c4)nc3)CC2)c1 [Example 417, N-(1-{3-[3-(Dimethylamino)propoxy]benzyl}piperidin-4-yl)-6-(3-fluorophenyl)nicotinamide] | 1.1
CC(C)(O)c1ccc(CN2CCC(NC(=O)c3ccc(-c4cccc(F)c4)nc3)CC2)c(F)c1 [Example 419, N-[1-(2-Fluoro-4-(1-hydroxy-1-methylethyl)benzyl]piperidin-4-yl}-6-(3-fluorophenyl)nicotinamide] | 1.03
COCCn1c(CN2CCC(NC(=O)c3ccc(-c4cccc(F)c4)nc3)CC2)nc2ccccc21 [Example 420, 6-(3-Fluorophenyl)-N-(1-{[1-(2-methoxyethyl)-1H-benzimidazol-2-yl]methyl}piperidin-4-yl)nicotinamide] | 3.4
Cn1c(CN2CCC(NC(=O)c3ccc(-c4cccc(F)c4)nc3)CC2)nc2ncccc21 [Example 421, 6-(3-Fluorophenyl)-N-{1-[(1-methyl-1H-imidazo[4,5-b]pyridin-2-yl)methyl]piperidin-4-yl}nicotinamide] | 1.34
O=C(NC1CCN(Cc2nc3ccccc3n2C2CC2)CC1)c1ccc(-c2cccc(F)c2)nc1 [Example 422, N-{1-[(1-Cyclopropyl-1H-benzimidazol-2-yl)methyl]piperidin-4-yl}-6-(3-fluorophenyl)nicotinamide] | 2.53
O=C(NC1CCN(Cc2nc3ccccc3n2CCF)CC1)c1ccc(-c2cccc(F)c2)nc1 [Example 423] | 0.931
O=C(NC1CCN(Cc2nc3ccccc3n2CF)CC1)c1ccc(-c2cccc(F)c2)nc1 [Example 424] | 1.3
COc1ccc(CN2CCC(NC(=O)c3ccc(-c4cccc(F)c4)nc3)CC2)cc1OCC(F)F [Example 425, N-{1-[3-(2,2-Difluoroethyoxy)-4-methoxybenzyl]piperidin-4-yl}-6-(3-fluorophenyl)nicotinamide] | 2.81
O=C(NC1CCN(Cc2coc(-c3ccccc3)n2)CC1)c1ccc(-c2cccc(F)c2)nc1 [Example 426, 6-(3-Fluorophenyl)-N-{1-[(2-phenyl-1,3-oxazol-4-yl)methyl]piperidin-4-yl}nicotinamide] | 5.53
CC(C)Cc1cc(CN2CCC(NC(=O)c3ccc(-c4cccc(F)c4)nc3)CC2)n[nH]1 [Example 429, 6-(3-Fluorophenyl)-N-{1-[(5-isobutyl-1H-pyrazol-3-yl)methyl]piperidin-4-yl}nicotinamide] | 1.12
O=C(NC1CCN(Cc2ccc3cccc(F)c3n2)CC1)c1ccc(-c2cccc(F)c2)nc1 [Example 430, 6-(3-Fluorophenyl)-N-{1-[(8-fluoroquinolin-2-yl)methyl]piperidin-4-yl}nicotinamide] | 1.2
Cc1c(CN2CCC(NC(=O)c3ccc(-c4cccc(F)c4)nc3)CC2)nc2ccccn12 [Example 432, 6-(3-Fluorophenyl)-N-{1-[(3-methylimidazo[1,2-a]pyridin-2-yl)methyl]piperidin-4-yl}nicotinamide] | 0.962
Cc1ccccc1-c1ncc(CN2CCC(NC(=O)c3ccc(-c4cccc(F)c4)nc3)CC2)cn1 [Example 434, 6-(3-Fluorophenyl)-N-(1-{[2-(2-methylphenyl)pyrimidin-5-yl]methyl}piperidin-4-yl)nicotinamide] | 1.51
COc1ccccc1-c1ncc(CN2CCC(NC(=O)c3ccc(-c4cccc(F)c4)nc3)CC2)cn1 [Example 437, 6-(3-Fluorophenyl)-N-(1-{[2-(2-methoxyphenyl)pyrimidin-5-yl]methyl}piperidin-4-yl)nicotinamide] | 3.52
COCCc1ncc(CN2CCC(NC(=O)c3ccc(-c4cccc(F)c4)nc3)CC2)cn1 [Example 440, 6-(3-Fluorophenyl)-N-(1-{[2-(2-methoxyethyl)pyrimidin-5-yl]methyl}piperidin-4-yl)nicotinamide] | 1.96
CCCc1ncc(CN2CCC(NC(=O)c3ccc(-c4cccc(F)c4)nc3)CC2)cn1 [Example 441, 6-(3-Fluorophenyl)-N-{1-[(2-propylpyrimidin-5-yl)methyl]piperidin-4-yl}nicotinamide] | 2.58

Next, values leading:

IC50 [nM] | Compound
0.121 | CCCc1ncc2c(n1)CCC(CN1CCC(NC(=O)c3ccc(-c4cccc(F)c4)nc3)CC1)C2 (centres unmarked) [Example 403, 6-(3-Fluorophenyl)-N-{1-[(2-propyl-5,6,7,8-tetrahydroquinazolin-6-yl)methyl]piperidin-4-yl}nicotinamide]
0.469 | COCCOc1c(CN2CCC(NC(=O)c3ccc(-c4cccc(F)c4)nc3)CC2)cccc1OC [Example 404, 6-(3-Fluorophenyl)-N-{1-[3-methoxy-2-(2-methoxyethoxy)benzyl]piperidin-4-yl}nicotinamide]
0.483 | COc1cc(CN2CCC(NC(=O)c3ccc(-c4cccc(F)c4)nc3)CC2)ccc1OCC(F)F [Example 405, N-{1-[(2,2-Difluoroethoxy)-3-methoxybenzyl]piperidin-4-yl}-6-(3-fluorophenyl)nicotinamide]
0.35 | O=C(NC1CCN(Cc2nc3ccccn3c2Br)CC1)c1ccc(-c2cccc(F)c2)nc1 [Example 414, N-{1-[(3-Bromoimidazo[1,2-a]pyridin-2-yl)methyl]piperidin-4-yl}-6-(3-fluorophenyl)nicotinamide]
0.427 | O=C(NC1CCN(Cc2cccc3c2OCCO3)CC1)c1ccc(-c2cccc(F)c2)nc1 [Example 418, N-[1-(2,3-Dihydro-1,4-benzodioxin-5-ylmethyl)piperidin-4-yl]-6-(3-fluorophenyl)nicotinamide]
0.656 | CCCn1cc(CN2CCC(NC(=O)c3ccc(-c4cccc(F)c4)nc3)CC2)c(C)n1 [Example 427, 6-(3-Fluorophenyl)-N-{1-[(3-methyl-1-propyl-1H-pyrazol-4-yl)methyl]piperidin-4-yl}nicotinamide]
0.926 | CC(C)Oc1ccc(CN2CCC(NC(=O)c3ccc(-c4cccc(F)c4)nc3)CC2)cc1CO [Example 428, 6-(3-Fluorophenyl)-N-{1-[3-(hydroxymethyl)-4-isopropoxybenzyl]piperidin-4-yl}nicotinamide]
0.822 | CCn1ccnc1CN1CCC(NC(=O)c2ccc(-c3cccc(F)c3)nc2)CC1 [Example 431, N-{1-[(1-Ethyl-1H-imidazol-2-yl)methyl]piperidin-4-yl}-6-(3-fluorophenyl)nicotinamide]
0.401 | CC(C)c1csc(CN2CCC(NC(=O)c3ccc(-c4cccc(F)c4)nc3)CC2)n1 [Example 433, 6-(3-Fluorophenyl)-N-{1-[(4-isopropyl-1,3-thiazol-2-yl)methyl]piperidin-4-yl}nicotinamide]
0.908 | Cc1cccc(-n2ccnc2CN2CCC(NC(=O)c3ccc(-c4cccc(F)c4)nc3)CC2)c1 [Example 435, 6-(3-Fluorophenyl)-N-(1-{[1-(3-methylphenyl)-1H-imidazol-2-yl]methyl}piperidin-4-yl)nicotinamide]
0.885 | O=C(NC1CCN(Cc2ccccc2Cn2cccn2)CC1)c1ccc(-c2cccc(F)c2)nc1 [Example 436, 6-(3-Fluorophenyl)-N-{1-[2-(1H-pyrazol-1-ylmethyl)benzyl]piperidin-4-yl}nicotinamide]
0.417 | Cc1ccc(-n2cccn2)c(CN2CCC(NC(=O)c3ccc(-c4cccc(F)c4)nc3)CC2)c1 [Example 438, 6-(3-Fluorophenyl)-N-{1-[5-methyl-2-(1H-pyrazol-1-yl)benzyl]piperidin-4-yl}nicotinamide]
0.762 | O=C(NC1CCN(Cc2c[nH]nc2-c2cccc(F)c2)CC1)c1ccc(-c2cccc(F)c2)nc1 [Example 439, 6-(3-Fluorophenyl)-N-(1-{[3-(3-fluorophenyl)-1H-pyrazol-4-yl]methyl}piperidin-4-yl)nicotinamide]
